The text below walks through data of US8193191B2, “Urotensin II receptor antagonists” (Janssen Pharmaceutica N.V., priority 2006, dated 2012).

In assay [1] the target is T1, endogenous human UII receptor (Homo sapiens, UniProt Q9UKP6).
T1 sequence (Q9UKP6 1-389): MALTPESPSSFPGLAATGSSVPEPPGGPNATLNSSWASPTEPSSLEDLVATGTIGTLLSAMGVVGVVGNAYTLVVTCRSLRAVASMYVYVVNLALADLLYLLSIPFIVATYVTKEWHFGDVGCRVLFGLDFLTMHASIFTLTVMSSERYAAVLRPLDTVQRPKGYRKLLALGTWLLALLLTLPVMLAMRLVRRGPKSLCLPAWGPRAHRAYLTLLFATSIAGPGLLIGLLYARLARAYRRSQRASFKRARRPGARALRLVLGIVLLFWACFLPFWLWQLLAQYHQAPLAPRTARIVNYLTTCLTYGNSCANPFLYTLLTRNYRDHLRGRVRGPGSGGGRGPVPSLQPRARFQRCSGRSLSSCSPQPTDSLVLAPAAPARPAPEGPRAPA
In words: Human Radioligand Binding Assay ((^125I)-U-II binding to human skeletal muscle myoblasts).

The target of assay [2] is T2, rat GPR14 (U-II receptor) (Rattus norvegicus, UniProt P49684).
T2 construct: expressed in transfected cells
T2 sequence (P49684 1-386): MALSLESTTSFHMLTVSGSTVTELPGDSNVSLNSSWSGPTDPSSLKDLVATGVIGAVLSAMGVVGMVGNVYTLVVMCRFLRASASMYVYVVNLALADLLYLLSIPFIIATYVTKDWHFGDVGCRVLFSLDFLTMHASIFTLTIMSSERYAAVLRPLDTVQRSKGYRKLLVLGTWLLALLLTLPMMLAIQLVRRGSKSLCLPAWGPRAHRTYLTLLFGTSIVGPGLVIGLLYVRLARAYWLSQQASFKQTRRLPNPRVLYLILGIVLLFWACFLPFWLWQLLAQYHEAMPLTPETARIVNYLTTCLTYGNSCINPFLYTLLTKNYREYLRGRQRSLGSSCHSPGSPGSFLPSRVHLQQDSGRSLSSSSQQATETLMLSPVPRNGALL
In words: Rat UII Calcium Mobilization FLIPR Assay. The class given is cell-based. The settings on record: average value for the compound tested; read-out: Rat UII FLIPR Average IC50. The gist of the method: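 CHO cells stably expressing rat U-II receptor, seeded 24 h before assay, were loaded with FLIPR calcium dye in HBSS/20 mM HEPES/0.1% BSA/2.5 mM probenecid, pH 7.4, for 1 h at 37° C. Calcium mobilization then read by FLIPR at 23° C.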
A general note: Calcium assays in cells follow changes in intracellular calcium, usually with a dye or a luminescent sensor.

The target of assay [3] is T3, Human UII receptor, 6D9 human rhabdomyosarcoma cells (Homo sapiens, UniProt Q9UKP6).
T3 construct: 6D9: isolated by dilution subcloning of RMS13 cells, ATCC® Number: CRL-2061; host or cells: 6D9 human rhabdomyosarcoma cells (subclone of RMS13)
T3 sequence (Q9UKP6 1-389): T1 sequence (Q9UKP6 1-389)
In words: Human UII Calcium Mobilization Assay. The settings on record: average value, FLIPR TETRA, read-out: Human UII Ca^+ Mobilization Average IC50. The class given is cell-based. Put shortly: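 6D9 rhabdomyosarcoma cells loaded 45 min at 37° C with calcium dye (1.25 mM probenecid, 0.01% FBS, HBSS/20 mM HEPES). Antagonist and U-II agonist added at room temperature; FLIPR fluorescence read over 4 min; EC50/IC50 fitted. DMSO ≤0.1% final.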

Where [4] appears, read: read-out: Human UII Average Binding Ki, average value, (^125I)-U-II binding to human skeletal muscle myoblasts (HSMM), 25° C., 3 h.

Where two headings read alike, the source gives them in different places.

Usually Ki stands for a dissociation constant, usually derived from enzyme kinetics or from competition with a known ligand. Broadly, the IC50 is the concentration that gives 50% inhibition. Consider `COc1ccc(C(CCCNS(N)(=O)=O)N2C(=O)c3cccc(N4CCN([C@H](C)c5ccccc5)CC4)c3C2=O)cc1OC` (stereo partly drawn) [Cpd 122, N′-[(4-(3,4-dimethoxy-phenyl)-4-{1,3-dioxo-4-[4-(1R)-(1-phenyl-ethyl)-piperazin-1-yl]-1,3-dihydro-isoindol-2-yl}-butyl)]-sulfamide], for which the Ki in assay [1] worked out at 120 nM. In addition, the IC50 turned out to be 12 nM in assay [2] and 500 nM in assay [3].
As for `COc1ccc(CC(c2ccc(OC)c(OC)c2)N2C(=O)c3cccc(N4CCN([C@H](C)c5ccccc5)CC4)c3C2=O)cc1OC` (stereo partly drawn) [Cpd 123, 2-[1,2-bis-(3,4-dimethoxy-phenyl)-ethyl]-4-[4-(1R)-(1-phenyl-ethyl)-piperazin-1-yl]-isoindole-1,3-dione], in assay [1], the affinity corresponds to a Ki of 570 nM. For the same compound, the IC50 in assay [2] was 250 nM; in assay [3], 3100 nM.
In assay [1], `COc1ccc([C@@H](CCCNS(=O)(=O)c2sc(C)nc2C)N2C(=O)c3cccc(N4CCN([C@H](C)c5ccccc5)CC4)c3C2=O)cc1OC` [Cpd 124, (R)-2,4-dimethyl-thiazole-5-sulfonic acid (4-(3,4-dimethoxy-phenyl)-4-{1,3-dioxo-4-[4-(1R)-(1-phenyl-ethyl)-piperazin-1-yl]-1,3-dihydro-isoindol-2-yl}-butyl)-amide] showed a Ki of 320 nM. In addition, the results for the IC50 in assay [2] and in assay [3] were 28 nM and 300 nM, respectively.
As for `COc1ccc([C@@H](CCCNS(=O)(=O)c2c(C)n[nH]c2C)N2C(=O)c3cccc(N4CCN([C@H](C)c5ccccc5)CC4)c3C2=O)cc1OC` [Cpd 125, (R)-3,5-dimethyl-1H-pyrazole-4-sulfonic acid (4-(3,4-dimethoxy-phenyl)-4-{1,3-dioxo-4-[4-(1R)-(1-phenyl-ethyl)-piperazin-1-yl]-1,3-dihydro-isoindol-2-yl}-butyl)-amide], in assay [1] (setting [4]), the Ki came out at 13 nM. Moreover, the figures for the IC50 in assay [2] and in assay [3] were 11 nM and 47 nM, respectively.
For the compound `COc1ccc([C@@H](CCCNS(=O)(=O)c2cn(C)nc2C)N2C(=O)c3cccc(N4CCN([C@H](C)c5ccccc5)CC4)c3C2=O)cc1OC` [Cpd 128, (R)-1,3-dimethyl-1H-pyrazole-4-sulfonic acid (4-(3,4-dimethoxy-phenyl)-4-{1,3-dioxo-4-[4-(1R)-(1-phenyl-ethyl)-piperazin-1-yl]-1,3-dihydro-isoindol-2-yl}-butyl)-amide], the affinity in assay [1], expressed as Ki, was 110 nM. The IC50 was determined as 8.9 nM in assay [2] and 280 nM in assay [3].
Turning to `COc1ccc([C@@H](CCCNS(=O)(=O)O)N2C(=O)c3cccc(N4CCN([C@H](C)c5ccccc5)CC4)c3C2=O)cc1OC` [Cpd 129, (R)-(4-(3,4-dimethoxy-phenyl)-4-{1,3-dioxo-4-[4-(1R)-(1-phenyl-ethyl)-piperazin-1-yl]-1,3-dihydro-isoindol-2-yl}-butyl)-sulfamic acid], in assay [1], the Ki stood at 9 nM. Besides, the IC50 in assay [2] worked out at 9.4 nM; in assay [3], 160 nM.
Compound `COc1ccc([C@@H](CCCNS(=O)(=O)c2cnn(C)c2C)N2C(=O)c3cccc(N4CCN([C@H](C)c5ccccc5)CC4)c3C2=O)cc1OC` [Cpd 132, (R)-1,5-dimethyl-1H-pyrazole-4-sulfonic acid (4-(3,4-dimethoxy-phenyl)-4-{1,3-dioxo-4-[4-(1R)-(1-phenyl-ethyl)-piperazin-1-yl]-1,3-dihydro-isoindol-2-yl}-butyl)-amide] displayed a Ki in assay [1] of 72 nM. Besides, the IC50 worked out at 9.8 nM in assay [2] and 340 nM in assay [3].
The matching figures for `COc1ccc([C@@H](CCCNS(=O)(=O)c2cnn(C)c2)N2C(=O)c3cccc(N4CCN([C@H](C)c5ccccc5)CC4)c3C2=O)cc1OC` [Cpd 136, (R)-1-methyl-1H-pyrazole-4-sulfonic acid (4-(3,4-dimethoxy-phenyl)-4-{1,3-dioxo-4-[4-(1R)-(1-phenyl-ethyl)-piperazin-1-yl]-1,3-dihydro-isoindol-2-yl}-butyl)-amide]: 61 nM, 6.2 nM and 360 nM.
Turning to `COc1ccc([C@@H](CCCNS(=O)(=O)c2cnoc2C)N2C(=O)c3cccc(N4CCN([C@H](C)c5ccccc5)CC4)c3C2=O)cc1OC` [Cpd 138, (R)-5-methyl-isoxazole-4-sulfonic acid (4-(3,4-dimethoxy-phenyl)-4-{1,3-dioxo-4-[4-(1R)-(1-phenyl-ethyl)-piperazin-1-yl]-1,3-dihydro-isoindol-2-yl}-butyl)-amide], the Ki in assay [1] (setting [4]) is 32 nM. The IC50 was 20 nM in assay [2] and 130 nM in assay [3].
The compound `COc1ccc([C@@H](CCCNS(=O)(=O)c2c(C)noc2C)N2C(=O)c3cccc(N4CCN([C@H](C)c5ccccc5)CC4)c3C2=O)cc1OC` [Cpd 139, (R)-3,5-dimethyl-isoxazole-4-sulfonic acid (4-(3,4-dimethoxy-phenyl)-4-{1,3-dioxo-4-[4-(1R)-(1-phenyl-ethyl)-piperazin-1-yl]-1,3-dihydro-isoindol-2-yl}-butyl)-amide] displayed a Ki in assay [1] of 46 nM. Besides, the values for the IC50 in assay [2] and in assay [3] were 29 nM and 290 nM, respectively.
For `COc1ccc([C@@H](CCCNS(=O)(=O)c2cn(C)c(C)n2)N2C(=O)c3cccc(N4CCN([C@H](C)c5ccccc5)CC4)c3C2=O)cc1OC` [Cpd 140, (R)-1,2-dimethyl-1H-imidazole-4-sulfonic acid (4-(3,4-dimethoxy-phenyl)-4-{1,3-dioxo-4-[4-(1R)-(1-phenyl-ethyl)-piperazin-1-yl]-1,3-dihydro-isoindol-2-yl}-butyl)-amide], in assay [1] (setting [4]), the Ki came to 16 nM. Besides, the IC50 in assay [2] was found to be 14 nM; in assay [3], 220 nM.
For `COc1ccc([C@@H](CCCNC(=O)c2cnoc2C)N2C(=O)c3cccc(N4CCN([C@H](C)c5ccccc5)CC4)c3C2=O)cc1OC` [Cpd 144, (R)-5-methyl-isoxazole-4-carboxylic acid (4-(3,4-dimethoxy-phenyl)-4-{1,3-dioxo-4-[4-(1R)-(1-phenyl-ethyl)-piperazin-1-yl]-1,3-dihydro-isoindol-2-yl}-butyl)-amide] the same measures were 130 nM, 11 nM and 760 nM.
In turn, `COc1ccc([C@@H](CCCNc2ncccn2)N2C(=O)c3cccc(N4CCN([C@H](C)c5ccccc5)CC4)c3C2=O)cc1OC` [Cpd 145, (R)-2-[1-(3,4-dimethoxy-phenyl)-4-(pyrimidin-2-ylamino)-butyl]-4-[4-(1R)-(1-phenyl-ethyl)-piperazin-1-yl]-isoindole-1,3-dione] displayed a Ki in assay [1] of 120 nM. Also, the IC50 was determined as 16 nM in assay [2] and 750 nM in assay [3].
For `COc1ccc([C@@H](CCCNC(=N)N)N2C(=O)c3cccc(N4CCN([C@H](C)c5ccccc5)CC4)c3C2=O)cc1OC` [Cpd 146, (R)-N-(4-(3,4-dimethoxy-phenyl)-4-{1,3-dioxo-4-[4-(1R)-(1-phenyl-ethyl)-piperazin-1-yl]-1,3-dihydro-isoindol-2-yl}-butyl)-guanidine] the same measures were 640 nM, 29 nM and 2700 nM.
Turning to `COc1ccc([C@@H](CCCNC(=O)c2cccn2C)N2C(=O)c3cccc(N4CCN([C@H](C)c5ccccc5)CC4)c3C2=O)cc1OC` [Cpd 147, (R)-1-methyl-1H-pyrrole-2-carboxylic acid (4-(3,4-dimethoxy-phenyl)-4-{1,3-dioxo-4-[4-(1R)-(1-phenyl-ethyl)-piperazin-1-yl]-1,3-dihydro-isoindol-2-yl}-butyl)-amide], the Ki in assay [1] is 160 nM. The values for the IC50 in assay [2] and in assay [3] were 32 nM and 2100 nM, respectively.
As to `COc1ccc([C@@H](CCCNC(=O)c2ccc(S(N)(=O)=O)n2C)N2C(=O)c3cccc(N4CCN([C@H](C)c5ccccc5)CC4)c3C2=O)cc1OC` [Cpd 148, (R)-1-methyl-5-sulfamoyl-1H-pyrrole-2-carboxylic acid (4-(3,4-dimethoxy-phenyl)-4-{1,3-dioxo-4-[4-(1R)-(1-phenyl-ethyl)-piperazin-1-yl]-1,3-dihydro-isoindol-2-yl}-butyl)-amide], the Ki in assay [1] was greater than 200 nM. The figures for the IC50 in assay [2] and in assay [3] were 18 nM and 1100 nM, respectively.
